From patent US20130005802A1, “TREATMENT OF WNT/FRIZZLED-RELATED DISEASES” (priority 2009, published 2013)
Like-named read-outs stand apart in the source and are kept apart here.

How the values were obtained:
Dvl-2 = assay: Immunohistochemistry of Dvl-2 in treated tumors; type: in vivo, NOD/SCID mice; settings: 200 mg/kg, 2 or 3 weeks
Description: Paraffin-embedded specimens were cut into 4 μm-thick of sequential sections. After dewaxing in xylene and rehydrating stepwise in ethanol, sections were subjected to heat-induced antigen retrieval. Endogenous peroxidase activity was blocked with 3% H2O2, and non-specific binding was blocked with non-immune horse sera. Sections were then incubated with primary antibodies overnight at 4C. Anti-β-catenin (sc-65483, Santa Cruz Biotechnology, Inc., Santa Cruz, Calif.) and anti-Dvl-2 (sc-8026, Santa Cruz Biotechnology, Inc., Santa Cruz, Calif.) monoclonal antibodies were used at (1:50) dilution. After rinsing the sections were incubated with the biotinylated secondary antibody (1:200 dilution; Dakopatts, Copenhagen, Denmark) for 30 min at room temperature and then with the avidin-biotin peroxidase complex from the Vector Elite ABC kit (Vector Laboratories, Burlingame, Calif.) according to the manufacturer's instructions. Visualization was achieved using 3,3′-diaminobenzidine tetrahydrochloride and H2O2. Specimens were counterstained with hematoxylin.
NOD/SCID mice were implanted with colorectal cancer explants or cell lines. […] Tumors were excised and fixed with 10% neutralized, buffered formalin. Paraffin-embedded specimens were cut into 4 μm-thick of sequential sections. After dewaxing and rehydration, heat-induced antigen retrieval was performed. […]

HT29 cells = assay: MTT assay, HT29; type: cell-based
Description: AsPC-1 tumor cells were cultured with T cells at a 1:5 ratio for 7 days in the presence of MEDI-565 or Cont BiTE (100 ng/mL). On day 7, floating cells were discarded and only adherent AsPC-1 cells were harvested with 0.05% trypsin/EDTA and washed with PBS three times. 1×10^4 AsPC-1 tumor cells were added to each well of 96 well flat bottom plates in 200 μL of complete RPMI1640 medium. The cells were allowed to adhere to the plates overnight at 37° C. (day 0) and were further incubated for 1, 2, 4 or 7 days. 20 μL of 10×MTT (3-[4,5-dimethylthiazol-2-yl]-2,5-diphenyl-tetrazolium bromide, 5 mg/mL) solution was added to each well, and incubated at 37° C. for 2 hr. The adherent cells were lysed with 150 μL of dimethyl sulfoxide (DMSO) and the optical density (OD) at 550 nm was measured.
Colorectal cancer cell lines were incubated in 96-well flat-bottomed plates at 5,000 cells per well in 200 μL of complete RPMI1640 medium. The cells were allowed to adhere to the plates overnight at 37° C. (day 0). […] Then 20 μL of 10×MTT solution was added to each well and incubated at 37° C. for 2 hr. The adherent cells were lysed with 150 μL of DMSO, and then optical density (OD) at 562 nm was measured. DMSO or culture medium was used as a control.
MTT assay was performed at each time point.

[1] = test system: LEF/TCF transcription factor reporter (TOPFlash); assay: TOPFlash reporter assay in HEK293 cells; type: cell-based; settings: Homo sapiens
Description: (§1) To obtain a Frizzled1-GFP stable cell line (Fzd1GFP-U2OS), U2OS cells were transfected with pCS2ratFrizzled1-GFP and pLKO.1 (10:1 ratio by weight), using the Nucleofection transfection protocol from Amaxa, and stable receptor expressing clones were selected using 1.5 μg/mL puromycin in the culture medium. For generating TOPFlash stable cell lines, HEK293 cells were transfected with p8xTOPFlash, the Renilla luciferase plasmid, and pLKO.1 at a ratio by weight of 10:3:1 and stable clones selected using 1 μg/mL puromycin in the growth medium. pLKO.1 was used to confer puromycin resistance to the stable clones.
For the TOPFlash Luciferase assay the TOPFlash stable cells were seeded in 150 μL growing medium/well in 96-well plates at 100% confluency. Fifty microliters of conditioned medium containing the chemical compounds to be tested or DMSO were added to each well. After an 8 hr treatment, the cells were then washed once with PBS, and lysed with 80 μL MPER solution (Pierce, Rockford, Ill.). Thirty microliters of cell lysate were used for measuring luciferase activity in a 96-well plate reader (FluoStar Optima, BMG Labtech, Chicago, Ill.).
LEF/TCF transcription factor reporter (TOPFlash) assay is a general readout for canonical Wnt signaling pathways. […] A Renila luciferase plasmid was also generated to serve as an internal control.
The average TOPFlash reporter activity of Wnt3A plus DMSO treatment was set as 100%, and the relative reporter activity of Wnt3A plus the indicated concentration of niclosmide was calculated and plotted.
The compounds shown in Table 2 were purchased from Sigma-Aldrich (St. Louis, Mo.) or Chembridge (San Diego, Calif.). The activity of each of the compounds as a negative modulator of the Wnt/Frizzled signaling pathway was examined using the Top-flash assay, as described above.

Frizzled1-GFP = Frizzled1-GFP (Rattus norvegicus, UniProt Q08463); assay: Image-based Frizzled1-GFP internalization assay (primary screening assay) in Fzd1GFP-U2OS cells; type: cell-based; settings: 6 hr, 0.47-7.5 μM tested
Frizzled1-GFP, sequence (Q08463 69-641): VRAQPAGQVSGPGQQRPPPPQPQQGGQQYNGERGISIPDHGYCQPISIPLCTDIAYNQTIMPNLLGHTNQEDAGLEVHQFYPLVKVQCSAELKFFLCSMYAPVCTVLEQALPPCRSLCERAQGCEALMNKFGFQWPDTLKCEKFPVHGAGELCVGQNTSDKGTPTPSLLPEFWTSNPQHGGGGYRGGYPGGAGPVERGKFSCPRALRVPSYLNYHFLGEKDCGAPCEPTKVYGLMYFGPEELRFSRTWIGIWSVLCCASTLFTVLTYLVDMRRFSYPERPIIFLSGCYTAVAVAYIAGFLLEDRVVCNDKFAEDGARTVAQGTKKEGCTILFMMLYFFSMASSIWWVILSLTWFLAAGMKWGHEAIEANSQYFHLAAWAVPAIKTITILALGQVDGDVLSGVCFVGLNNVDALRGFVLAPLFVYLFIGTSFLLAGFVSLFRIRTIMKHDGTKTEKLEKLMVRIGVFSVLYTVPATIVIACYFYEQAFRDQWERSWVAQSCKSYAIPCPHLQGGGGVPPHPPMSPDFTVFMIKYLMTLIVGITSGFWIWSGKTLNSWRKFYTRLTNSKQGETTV
Description: as §1
The plates were incubated overnight at 37° C. in 5% CO2. […]
To measure the number of the internalized vesicles per cell, cytosol was carefully traced to exclude cell membrane. […] The number of internalized vesicles per cell was counted by the Metamorph software. More than 30 cells per sample were analyzed to obtain statistical significance. […]
To determine the time-course of internalization for Frizzled1-GFP receptors, the accumulation of cytosolic puncta/vesicles was measured (FIG. 4A-4E). Internalization was assessed by counting the number of Frizzled1-GFP containing vesicles in the cytosol using the computer program Metamorph, and the results are presented in the graph for the given times (0 hr, n=51 cells; 1 hr, n=69; 2 hr, n=32; 4 hr, n=55, and 6 hr, n=61). […]

**Q.** How did the “cytoplasmic expression of Dvl-2 in tumors vs control” value (Dvl-2) turn out when `O=C(Nc1ccc([N+](=O)[O-])cc1Cl)c1cc(Cl)ccc1O` [niclosamide] was run?
**A.** decreased levels

**Q.** And the “concentration showing anti-proliferation effect” value (HT29 cells; 0.4, 2, 10 μM tested, 72 hr)?
**A.** 10 µM

**Q.** What about the “% proliferation over time” value (HT29 cells; 0.4, 2, 10 μM, 24-96 hr) of the same compound?
**A.** insensitive

**Q.** What about the IC50 ([1]; Wnt3A conditioned medium, read-out: IC50 of inhibition of Wnt3A stimulated TOPFlash reporter activity) of the same compound?
**A.** 500 ± 50 nM

**Q.** What about the IC50 ([1]; read-out: TopFlash assay: IC50) of the same compound?
**A.** < 1000 nM

**Q.** What about the “concentration with significant increase in the number of internalized receptors” value (Frizzled1-GFP) of the same compound?
**A.** 1 to 2 µM
